Results published in article PMC11089505, “Structural Elucidation and Antiviral Activity of Covalent Cathepsin L Inhibitors” (Journal of Medicinal Chemistry, 2024).
“And” between values parts separate entries of the source, which are not always exact repeats. Identical values can stand only once. Like-named read-outs stand apart in the source and are kept apart here. Square brackets hold non-standard residues; d marks the D form. Peptide text beside a SMILES is read from it. Nle = CCCC[C@H](N)C(=O)O

Legend:
CatL [1] = target: T1, CatL (Homo sapiens, UniProt P07711, T223A); assay: NanoDSF, thermal stability of CatL; assay type: binding; conditions: for 2:1, Tm average (CatL): 2:1 compound to protein; for 20:1, Tm average (CatL): 20:1 compound to protein
T1 construct: made in house; host or cells: Komagataella pastoris strain GS115
T1 sequence (P07711 114-333 T223A): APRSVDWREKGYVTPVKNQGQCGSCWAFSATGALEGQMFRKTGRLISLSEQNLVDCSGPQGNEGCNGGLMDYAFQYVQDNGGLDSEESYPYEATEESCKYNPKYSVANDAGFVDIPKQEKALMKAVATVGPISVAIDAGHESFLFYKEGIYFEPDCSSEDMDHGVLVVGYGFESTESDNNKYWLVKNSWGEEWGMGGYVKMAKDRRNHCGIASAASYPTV

CatL [2] = conditions: cited from earlier work
in vitro = conditions: African green monkey
SARS-CoV-2 Mpro = SARS-CoV-2 Mpro (Severe acute respiratory syndrome coronavirus 2, UniProt P0DTD1); assay type: binding; conditions: for 2:1, Tm average (Mpro): 2:1 compound to protein
CatL [3] = target: T1, CatL; assay: CatL inactivation assay comparing epoxides at pH 6 and pH 4; assay type: biochemical
Procedure: (§1) Experiments were performed in a solution of 50 mM sodium acetate, pH 4.0, 50 mM NaCl, 0.1% PEG 6000, and 5 mM DTT. Distinct assays with epoxide inhibitors at pH 6.0 were performed in 50 mM sodium phosphate buffer, 50 mM NaCl, 5 mM DTT, 0.1% PEG 6000, adjusted to pH 6.0.
(§2) M1000 pro plate reader (Tecan), the fluorescent peptide substrate Z-RR-AMC, and excitation and emission wavelengths of 370 and 460 nm, respectively.
(§3) At first, the inhibitor concentration span was optimized for each inhibitor and the assay buffer. For this initial screening, CatL (5 nM) was mixed with different concentrations of inhibitors (1 nM–50 μM) to determine the range of their inhibition. […] Reaction data were fitted to the […] in GraphPad Prism 9 software: Y = bottom + (top – bottom)/(1 + 10^∧((log IC50 – X) × HillSlope)); X is the log of dose or concentration, Y is the response (fluorescence signal), decreasing as X increases, top and bottom are the plateaus in the same units as Y, log IC50 same log units as X, HillSlope is the slope factor or called the Hill slope.
Figure S7. Inactivation of CatL.
(1 picture or pasted object on this page, not shown here)

[4] = test system: SARS-CoV-2-GFP in Vero E6 cells; assay: microbe, parasite or virus in culture; assay type: cell-based
CatL [5] = target: T1, CatL; assay: CatL inhibition assay (Ki), substrate Z-RR-AMC; assay type: biochemical
Procedure: as §1, §2, §3

[6] = read-out: Ki of CatL inhibition

Compound: CCCC[C@@H](C=O)NC(=O)[C@H](CC(C)C)NC(=O)OCc1ccccc1 [Calpeptin]
- 2:1, Tm average (CatL) (CatL [1]): 81.8 °C
- 20:1, Tm average (CatL) (CatL [1]): 82 °C
- Ki (CatL [2]; [6]): 0.13 nM
- viability at 48 h, 1e-05 µM (in vitro): 100%
- viability at 48 h, 0.0001 µM (in vitro): 98.4%
- viability at 48 h, 0.001 µM (in vitro): 99.3%
- viability at 48 h, 0.01 µM (in vitro): 97.9%
- viability at 48 h, 0.1 µM (in vitro): 101%
- viability at 48 h, 1 µM (in vitro): 101%
- viability at 48 h, 10 µM (in vitro): 105%

Compound: CC(C)C[C@H](NC(=O)[C@H]1O[C@@H]1C(=O)O)C(=O)NCCCCN=C(N)N [E-64, 3-[[[(1S)-1-[[[4-[(Aminoiminomethyl)amino]butyl]amino]carbonyl]-3-methylbutyl]amino]carbonyl]-(2S.3S)-oxiranecarboxylic acid]
- ΔTm [K] for CatL, 2:1 ratio (CatL [1]): 4.1 ± 0.4 K
- 2:1, Tm average (CatL) (CatL [1]): 67.2 °C
- 20:1, Tm average (CatL) (CatL [1]): 76.9 °C
- ΔTm (for CatL), 2:1 compound to protein mixing ratio (CatL [1]; pH 5): 4,1 ± 0,4 °C and 4.1 °C
- ΔTm (for CatL), 20:1 compound to protein mixing ratio (CatL [1]; pH 5): 13,8 ± 0,1 °C and 13.8 °C
- ΔTm (for Mpro), 2:1 compound to protein mixing ratio (SARS-CoV-2 Mpro; 8 µM Mpro, pH 7.5, 2% DMSO, 2:1): -1,0 ± 0,2 °C and -1 °C
- 2:1, Tm average (Mpro) (SARS-CoV-2 Mpro): 54.4 °C
- Inactivation Rate (CatL [3]; E-64, pH 4, 19.76 nM): 0.0008123 per second and 0.00102 per second
- Inactivation Rate (CatL [3]; E-64, pH 4, 29.64 nM): 0.001302 per second and 0.001598 per second
- Inactivation Rate (CatL [3]; E-64, pH 4, 44.45 nM): 0.002006 per second and 0.002388 per second
- Inactivation Rate (CatL [3]; E-64, pH 4, 66.68 nM): 0.003192 per second and 0.003338 per second
- Inactivation Rate (CatL [3]; E-64, pH 4, 100.01 nM): 0.004626 per second and 0.004922 per second
- Inactivation Rate (CatL [3]; E-64, pH 4, 225.00 nM): 0.01185 per second and 0.01036 per second
- Inactivation Rate (CatL [3]; E-64, pH 6, 19.76 nM): 0.0005258 per second and 0.000578 per second
- Inactivation Rate (CatL [3]; E-64, pH 6, 29.64 nM): 0.0007668 per second and 0.0008131 per second
- Inactivation Rate (CatL [3]; E-64, pH 6, 44.45 nM): 0.001154 per second and 0.001247 per second
- Inactivation Rate (CatL [3]; E-64, pH 6, 66.68 nM): 0.001742 per second and 0.001837 per second
- Inactivation Rate (CatL [3]; E-64, pH 6, 100.01 nM): 0.002659 per second and 0.002717 per second
- Inactivation Rate (CatL [3]; E-64, pH 6, 225.00 nM): 0.006042 per second and 0.006005 per second

Compound: CC(C)C[C@H](NC(=O)OCc1ccccc1)C(=O)N[C@@H](CC1CCNC1=O)C(O)S(=O)(=O)O (some centres unmarked) [GC-376]
- Ki (CatL [2]; [6]): 0.26 nM

Compound: CCCC[C@@H](C=O)NC(=O)[C@H](CC(C)C)NC(=O)[C@H](CC(C)C)NC(C)=O [MG101] (Ac-Leu-Leu-[Nle]-aldehyde)
- viability at 48 h, 1e-05 µM (in vitro): 103%
- viability at 48 h, 0.0001 µM (in vitro): 102%
- viability at 48 h, 0.001 µM (in vitro): 102%
- viability at 48 h, 0.01 µM (in vitro): 102%
- viability at 48 h, 0.1 µM (in vitro): 102%
- viability at 48 h, 1 µM (in vitro): 101%
- viability at 48 h, 10 µM (in vitro): 63%

Compound: CCCC[C@@H](C=O)NC(=O)[C@H](CC(C)C)NC(=O)[C@H](CC(C)C)NC(C)=O [MG-101, Acetyl-Leu-Leu-Nle-aldehyde] (Ac-Leu-Leu-[Nle]-aldehyde)
- EC50 ([4]; Severe acute respiratory syndrome coronavirus 2, Vero C1008, 24 h, read-out: EC50 (after 24 h)): 4.39 nM
- EC50 ([4]; Severe acute respiratory syndrome coronavirus 2, Vero C1008, 48 h, read-out: EC50 (48 h)): < 500 nM
- EC50 ([4]; Severe acute respiratory syndrome coronavirus 2, Vero C1008, 48 h, read-out: EC50 (after 48 h)): 198 nM
- 2:1, Tm average (Mpro) (SARS-CoV-2 Mpro): 60.4 °C
- Ki (CatL [5]; read-out: Ki): 0.064 nM and 0.0645 nM
- remaining activity at 69 pM (CatL [5]; read-out: Residual activity (Vi/V0), MG-101 0.069 nM): 91.8%
- remaining activity at 99 pM (CatL [5]; read-out: Residual activity (Vi/V0), MG-101 0.099 nM): 86.4%
- remaining activity at 0.000141 µM (CatL [5]; read-out: Residual activity (Vi/V0), MG-101 0.141 nM): 80.3%
- remaining activity at 0.000202 µM (CatL [5]; read-out: Residual activity (Vi/V0), MG-101 0.202 nM): 78.5%
- remaining activity at 0.000288 µM (CatL [5]; read-out: Residual activity (Vi/V0), MG-101 0.288 nM): 70.1%
- remaining activity at 0.000412 µM (CatL [5]; read-out: Residual activity (Vi/V0), MG-101 0.412 nM): 58.3%
- remaining activity at 0.000588 µM (CatL [5]; read-out: Residual activity (Vi/V0), MG-101 0.588 nM): 43.3%
- Ki (CatL [2]; read-out: Ki): 0.5 nM
